Tests used:
[1] = tested on: Pseudomonas aeruginosa A 22; assay: Antiseptic activity by dilution in liquid medium (MIC and MBC), with anionic surfactants; format: cell-based; conditions: Pseudomonas aeruginosa A 22, 10^6 germes/ml
Description: de dilutions en milieu liquide, selon Peterson, Lance R., Denny, Aiken E., Gerding, Dale N. and Hall, Wendell H. :"determination of tolerance to antibiotic bactericidal on activity on Kivby-Baver susceptibility plates Am.J.Clin.Pathol. 74 : 645-650,1980.
Le but de la méthode est de déterminer la plus petite quantité d'un produit X qui exerce sur 10^6 cellules d'une flore bactérienne donnée une activité antiseptique de type bactériostatique ou bactéricide.
La méthode de dilution en milieu liquide permet de déterminer la CMI (concentration minimale inhibitrice-bacté- riostase) et la CMB (concentration minimale léthale-bactéricidie).
• . pipettes de 1 ml graduées au 1/100 en polystyrène cristal stériles, . pipettes Pasteur stériles, • . flacons en verre stériles de 30 ml, 100 ml, • . tubes à essai en verre PYREX stériles 65 x 13 mm, 160 x 16 mm, 25 x 200 mm et 18 x 180 mm, • . boîtes de Pétri, polystyrène cristal- stériles de 90 mm de diamètre, • . lumétron, colorimètre réf.401, • les milieux de culture liquides et gélosés sont adaptés à la croissance de l'espèce de microorganisme en test Pseudomonas aeruginosa. Un témoin de fertilité des milieux liquides et gélosés est réalisé à chaque expérimentation.
Les différents produits testés sont des solutions aqueuses d'alkyl éthoxycarboxylate de chlorhexidine (3%) et contenant un pourcentage variable de tensioactifs anioniques. Les solutions mères sont des dilutions au 1/10e des solutions précédentes.
Pseudomonas aeruginosa est ensemencé en stries sur une pente de gélose Tryptone Soya (CM 131 OXOID). On incube de 18 à 24 Heures à 32-35°C.
Pour le Pseudomonas aeruginosa, une transmission de 90 % représente une valeur de 2-10^8 germes/ml donc une dilution au 1/100e est nécessaire.
On prépare sur un portoir une série de tubes à hémolyse 65 x 13 mm stériles.
Chaque tube reçoit 1 ml de milieu de culture liquide dont la composition est adaptée à la croissance du germe (bouillon BN pour Pseudomonas aéruginosa).
Le tube reçoit 1 ml de la solution mère du produit à analyser. On homogénéise puis effectue des passages successifs au 1/2 jusqu'au dernier tube. Le volume dans tous les tubes est alors de 1 ml.
Toutes les dilutions sont ensemencées avec 1 ml de milieu de culture titrant […] par ml. Dans chaque tube on a alors 1.10^6 germes par ml.
Un tube sans antiseptique permet d'effectuer un dénombrement des microorganismes effectivement introduits dans le test et permet de s'assurer de la vitalité de la souche.
Dénombrement par la méthode de dilution-incorporation et incubation à l'étuve pendant 48 heures à 37°C.
La concentration minimale inhibitrice est la plus petite quantité de produit qui empêche le développement microbien (jugé à l'oeil) ;elle est exprimée en microgramme de chlorhexidine base par millilitre. […]

[2] = Acute toxicity, intraperitoneal LD50; format: in vivo
Description: (§1) La toxicité de ce nouveau sel de CHX a été vérifiée comparativement au tensioactrf sous forme acide de départ, au tensioactif neutralisé par l'ion sodium, à la CHX base et à l'association tensioactif neutralisé par l'ion sodium + CHX base, car il est bien connu que la toxicité d'une molécule peut être potentialisée par la présence d'un tensioactif.
(§2) Deux tests ont été utilisés : • 1- l'évaluation de la DL 50 par voie orale, • 2- l'évaluation de la DL 50 par voie intra-péritonéale.

[3] = Acute toxicity, oral LD50; format: in vivo
Description: as §1, §2

Solubility (qualitative) = conditions: water
[4] = Foaming power (10 inversions of a stoppered cylinder); format: physicochemical; conditions: 50 ml of a 10 % active matter solution, 100 ml cylinder, 23°C
Procedure: _Le_pouvoir moussant de l'acide éthoxycarboxylique et de l'éthoxycarboxylate de CHX a été vérifié, et ce comparativement.
A cet effet, on prépare une solution de tensioactif à 10% de matière active. On prélève 50 ml de cette solution que l'on introduit dans une éprouvette de 100 ml (diamètre intérieur 26 mm et hauteur 235 mm). On bouche hermétiquement cette éprouvette et on la soumet à 10 retournements successifs pour provoquer la formation de mousse. Cette manipulation se fait à 23°C (température de la solution).

[5] = parameters: species or system cobaye; conditions: in vivo
Description: On peut penser que cette différence de pouvoir moussant est apportée par le solvant propylèneglycol […] Tolérance : On s'est contenté de vérifier la bonne tolérance cutanée et oculaire du tensioactif acide éthoxycarboxylique et du nouveau sel de CHX de cet exemple, pour bien démontrer la parfaite inocuité de ce nouveau produit.
. tolérance cutanée cobaye :
On voit d'après ces résultats que cette tolérance est meilleure sur ce test pour le nouveau sel de CHX que pour l'acide éthoxycarboxylique. La différence d'épaisseur de pli de peau mesuré le 4ème jour d'application quotidienne est de 0,23 contre 1,2 mm, l'érythème de 1,4 contre 4.

[6] = parameters: species or system lapin; conditions: in vivo
Description: . tolérance cutanée lapin :

[7] = in vivo
[8] = tested on: Escherichia coli ATCC 10536; assay: Antibacterial properties (Tableau I), Escherichia coli; format: cell-based
Description: (§3) Des expérimentations ont été conduites afin de vérifier si ce nouveau sel de CHX possédait une bonne activité antiseptique comparativement au digluconate de CHX, sel de CHX des plus connus et largement utilisé et ce comparativement à l'acide AEC, ce dernier pouvant avoir par lui-même des propriétés antiseptiques.
(§4) L'activité de ces trois produits a été testée sur quatre germes […] et il a été constaté que non seulement on obtenait une activité voisine de celle du digluconate de CHX, mais que de plus, cette activité était plus importante dans trois cas (voir tableau I).

Candida albicans = assay: Antibacterial properties (Tableau I), Candida albicans; format: cell-based
Description: as §3, §4

[9] = tested on: Pseudomonas aeruginosa A 22; assay: Antibacterial properties (Tableau I), Pseudomonas aeruginosa; format: cell-based
Description: as §3, §4

Staphylo-coque aureus = assay: Antibacterial properties (Tableau I), Staphylococcus aureus; format: cell-based
Description: as §3, §4

N=C(NCCCCCCNC(=N)NC(=N)Nc1ccc(Cl)cc1)NC(=N)Nc1ccc(Cl)cc1 [Digluconate de CHX, Digluconate de chlorhexidine]
MIC ([1]; A22, aqueous solutions with 3% alkyl éthoxycarboxylate de chlorhexidine, read-out: CMI): 8.75 µg/mL | MBC ([1]; A22, sub-culture on neutralising medium, read-out: CMB): 8.75 µg/mL

[H]/N=C(\N/C(=N/[H])NCCCCCCNC(=N)NC(=N)Nc1ccc(Cl)cc1)Nc1ccc(Cl)cc1 [chlorhexidine base, 1,6-di-(p-chlorophényl-biguanido) hexane]
LD50 ([2]; in vivo, ip, read-out: DL 50 voie intrapérito-néale): 47 to 100 mg/kg | DL 50 voie orale [3]: pas de mortalité | solubilité dans l'eau (Solubility (qualitative)): insoluble dans l'eau

Alkyl éthoxycarboxy-late de sodium
DL 50 voie orale [3]: 7,5 g/kg

Alkyl éthoxycarboxylate de chlorhexidine [AEC de CHX]
Pouvoir moussant (mousse) [4]: 16 mL | différence d'épaisseur de pli de peau [5]: 0,23 mm | érythème [5]: 1,4 | indice d'irritation primaire [6]: 0,25 | CMI ([1]; aqueous solutions with 3% alkyl éthoxycarboxylate de chlorhexidine): 8 microgramme de chlorhexidine base par millilitre | CMB ([1]; sub-culture on neutralising medium): 8 microgramme de chlorhexidine base par millilitre

alkyl éthoxycarboxylique acide [AEC acide]
tolérance oculaire [7]: la mieux tolérée | DL 50 voie intrapérito-néale [2]: 0,5 g/kg | Pouvoir moussant (mousse) [4]: 26 mL | différence d'épaisseur de pli de peau [5]: 1,2 mm | érythème [5]: 4 | Propriétés antibactériennes [8]: 12,5 mg/ml | indice d'irritation primaire [6]: 0,75 | Propriétés antibactériennes (Candida albicans): 50 mg/mL | Propriétés antibactériennes [9]: 6,2 mg/ml | Propriétés antibactériennes (Staphylo-coque aureus): 1,56 mg/ml
